Some results are limits rather than exact numbers.

The data set is described as follows: LogPOW, octanol-water partition coefficient calculated from HPLC elution time via calibration curve. As to conditions: partition coefficient between 1-octanol and water, ODS-120T column, acetonitrile/0.6 mass % HClO4 aq. 1/1, 40° C. The class given is physicochemical. As to the method:
The LogPOW value is a partition coefficient between 1-octanol and water, and is represented by LogP, wherein P represents the ratio of (fluorosurfactant concentration in octanol)/(fluorosurfactant concentration in water) when an octanol/water (1:1) liquid mixture containing a fluorosurfactant is phase-separated.
The octanol-water partition coefficient represented by LogPOW is calculated as follows. HPLC is performed on standard substances (heptanoic acid, octanoic acid, nonanoic acid, and decanoic acid) each having a known octanol-water partition coefficient using TOSOH ODS-120T column (ϕ4.6 mm×250 mm) as a column and acetonitrile/0.6 mass % HClO4 aqueous solution=1/1 (vol/vol %) as an eluent at a flow rate of 1.0 ml/min, a sample amount of 300 μL, and a column temperature of 40° C., with detection light UV 210 nm. A calibration curve between the respective elution times and the known octanol-water partition coefficients is drawn, and the LogPOW value is calculated from the elution time of the sample liquid in HPLC based on the calibration curve.

For the compound `N.O=C(O)C(F)(OC(F)(F)C(F)(OC(F)(F)F)C(F)(F)F)C(F)(F)F` (centres unmarked) [CF3OCF(CF3)CF2OCF(CF3)COONH4], the LogPOW value is on record as ≤ 3.4.
One may read the chromatographic logP as lipophilicity estimated from chromatographic retention. For `O=C(O)C(F)(F)C(F)(F)C(F)(F)C(F)(F)C(F)(F)C(F)(F)C(F)(F)F` [PFOA, ammonium perfluorooctanoate], the chromatographic logP is 3.5.
